This is an account of results in US9840512B2, “Antidiabetic bicyclic compounds” (Merck Sharp & Dohme Corp., priority 2013, dated 2017).

Chain of human GPR40 (O14842 whole entry): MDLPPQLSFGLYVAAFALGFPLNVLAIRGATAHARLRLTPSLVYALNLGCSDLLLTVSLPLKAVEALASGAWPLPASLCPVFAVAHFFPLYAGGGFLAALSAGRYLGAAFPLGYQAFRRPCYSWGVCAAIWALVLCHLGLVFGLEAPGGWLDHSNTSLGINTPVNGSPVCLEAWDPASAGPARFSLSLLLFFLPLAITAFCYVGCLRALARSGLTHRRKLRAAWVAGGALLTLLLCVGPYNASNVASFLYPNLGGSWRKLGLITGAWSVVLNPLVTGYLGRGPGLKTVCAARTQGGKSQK

The first assay deals with human GPR40 (Homo sapiens, UniProt O14842). Description: Inositol Phosphate Turnover (IP1) Assay 2. Particulars: HEK cells stably expressing human GPR40, Table 2, read-out: Human IP1. It counts as cell-based. More on the design: expressed in transfected cells. As to the method:
Human and mouse GPR40 stable cell-lines were generated in CHO cells stably expressing NFAT BLA (Beta-lactamase). A human GPR40 stable cell-line was generated in HEK cells stably expressing the aequorin expressing reporter. The expression plasmids were transfected using lipofectamine (Life Technologies) following manufacturer's instructions. Stable cell-lines were generated following drug selection.
The assay is performed in 384-well format. HEK cells stably expressing human GPR40 are plated at 15,000 cells per well in growth medium (DMEM/10% fetal calf serum). Cell plates are then incubated 16 hours at 37 degrees in a 5% CO2 incubator.
Measurement of Inositol Phosphate Turnover (IP1) is performed using the CisBio IP-One kit (Part number 62IPAPEB). After the 16 hour incubation, the cells are washed with HEPES buffer and 10 ul of stimulation buffer (prepared as described in the kit) is added to each well. In a separate plate, compounds are diluted in DMSO (400-fold over the final concentration in the assay well) and 25 nl is acoustically transferred to the appropriate well in the assay cell plate. The plates are then incubated for 60 minutes at 37 degrees. 10 ul of detection buffer (also prepared as described in the IP-One kit) is added to each well and the plates are incubated for 60 minutes in the dark. The plates are then read in a Perkin Elmer EnVision or equivalent reader able to measure FRET.
On to `COc1ccc(F)c(-c2ccc(C3CCc4ccc([C@H](C5CC5)[C@H](C)C(=O)O)cc4O3)nc2C(OC)C(C)(C)C)c1` (single isomer, unassigned) [Example 135b], for which the EC50 worked out at 21 nM. Still for that read-out and setting: the value for `COc1ccc(F)c(-c2ccc(C3CCc4ccc(C(C5CCC5)C(C)C(=O)O)cc4O3)cc2)c1` (single isomer, unassigned) [Example 152, (2S,3S)-3-cyclobutyl-3-((R or S)-2-(2′-fluoro-5′-methoxy-[1,1′-biphenyl]-4-yl)chroman-7-yl)-2-methylpropanoic acid] was 774 nM; that for `COc1ccc(F)c(-c2ccc(C3CCc4ccc([C@@H](CC(=O)O)C5CC5)cc4O3)cn2)c1` (single isomer, unassigned) [Example 122a] was 88 nM. Still for that read-out and setting: the value for `COc1ccc(F)c(-c2ccc(C3CCc4ccc([C@H](C5CC5)[C@H](C)C(=O)O)cc4O3)cc2OC(F)(F)F)c1` (mixture of isomers) [Example 100] was 32 nM; that for `COc1cc(-c2cnc(C3CCc4ccc([C@H](C5CC5)[C@H](C)C(=O)O)cc4O3)c(F)c2)c(F)cn1` (single isomer, unassigned) [Example 110b] was 1.6 nM; that for `COc1ccc(F)c(-c2ccc([C@H]3CCc4ccc([C@H](CC(=O)O)C5CCC5)cc4O3)cc2)c1` (single isomer, unassigned) [Example 150, (3R)-3-cyclobutyl-3-((R or S)-(2-(2′-fluoro-5′-methoxy-[1,1′-biphenyl]-4-yl)chroman-7-yl)propanoic acid] was 660 nM. Same read-out and setting: under `COc1ccc(F)c(-c2ccc(C3CCc4ccc([C@@H](CC(=O)O)C5CC5)cc4O3)cc2C(OC)C(C)(C)C)c1` (single isomer, unassigned) [Example 125c] stands 235 nM; under `COc1ccc(F)c(-c2cnc(C3CCc4ccc([C@H](C5CC5)C(C)C(=O)O)cc4O3)nc2)c1` (single isomer, unassigned) [Example 124b], 70 nM; under `COc1cc(-c2ccc(C3CCc4ccc([C@H](C5CC5)[C@H](C)C(=O)O)cc4O3)nc2)c(F)cn1` (single isomer, unassigned) [Example 112b], 0.92 nM. For the compound `COc1ccc(F)c(-c2cnc(C3CCc4ccc([C@H](C5CC5)[C@H](C)C(=O)O)cc4O3)c(F)c2)c1` (single isomer, unassigned) [Example 105a], the EC50 turned out to be 0.82 nM.

Consider `COc1ccc(F)c(-c2ccc(C3CCc4ccc(C(CC(=O)O)C5CC5)cc4O3)cc2C2=CCCC2(C)C)c1` (single isomer, unassigned) [Example 101c], for which the EC50 worked out at 58 nM.

Consider `COc1ccc(F)c(-c2ccc(C3CCc4ccc(C(C5CCC5)C(C)C(=O)O)cc4O3)cc2)c1` (single isomer, unassigned) [Example 158], for which the EC50 was determined as 132 nM. In the case of `COc1ccc(F)c(-c2ccc(C3CCc4ccc(C(C)CC(=O)O)cc4O3)cc2)c1` (single isomer, unassigned) [Example 139], the EC50 was 116 nM.

For `COc1cncc(-c2ccc(C3CCc4ccc([C@@H](CC(=O)O)C5CC5)cc4O3)cc2)n1` (some centres unmarked) [Example 77], the EC50 turned out to be 920 nM. Still for that read-out and setting: the value for `COc1ccc(F)c(-c2cnc(C3CCc4ccc([C@H](C5CC5)[C@H](C)C(=O)O)cc4O3)c(F)c2)c1` (single isomer, unassigned) [Example 105b] was 0.79 nM. Consider `COc1ccc(F)c(-c2ccc(C3CCc4ccc([C@@H](CC(=O)O)C5CC5)cc4O3)c(F)c2)c1` (mixture of isomers) [Example 88], for which the EC50 turned out to be 6.5 nM. Same read-out and setting: under `C[C@H](C(=O)O)[C@H](c1ccc2c(c1)OC(c1ccc(-c3cc(O)ccc3F)cn1)CC2)C1CC1` (mixture of isomers) [Example 107] stands 132 nM.

Take `COc1ccc(F)c(-c2ccc(C3CCc4ccc([C@@H](CC(=O)O)C5CC5)cc4O3)cc2)c1F` (some centres unmarked) [Example 82]: the EC50 turned out to be 54 nM. On the same count and under the same terms, the value for `COc1ccc(F)c(-c2ccc(C3CCc4ccc(C(C)C(C)C(=O)O)cc4O3)cc2)c1` (single isomer, unassigned) [Example 147a] was 9 nM.

In the case of `COc1ccc(F)c(-c2ccc(C3CCc4ccc([C@H](C5CC5)[C@H](C)C(=O)O)cc4O3)nc2)c1` (single isomer, unassigned) [Example 97a], the EC50 was 0.9 nM. On to `COc1cc(-c2ccc(C3CCc4ccc([C@H](C5CC5)[C@H](C)C(=O)O)cc4O3)nc2)ccn1` (single isomer, unassigned) [Example 120a], for which the EC50 was found to be 4.4 nM.

With `COc1ccc(F)c(-c2cnc(C3CCc4ccc([C@H](C5CC5)[C@H](C)C(=O)O)cc4O3)c(C)c2)c1` (single isomer, unassigned) [Example 115a], the EC50 was determined as 4.2 nM. Same read-out and setting: the value for `COc1ccc(F)c(-c2ccc(C3CCc4ccc(C(C5CCC5)C(C)C(=O)O)cc4O3)cc2)c1` (single isomer, unassigned) [Example 155] was 1 nM. Same read-out and setting: the value for `COc1cc(-c2cnc(C3CCc4ccc([C@H](C5CC5)[C@H](C)C(=O)O)cc4O3)c(F)c2)c(F)cn1` (single isomer, unassigned) [Example 110a] was 6.8 nM. The same measure, in the same setting: under `COc1ccc(F)c(-c2ccc(C3CCc4ccc([C@H](C5CC5)[C@H](C)C(=O)O)cc4O3)cc2C(OC)C(C)(C)C)c1` (mixture of isomers) [Example 128] stands 3.2 nM; under `COc1cccc(-c2ccc(C3CCc4ccc([C@@H](CC(=O)O)C5CC5)cc4O3)cc2)c1` (some centres unmarked) [Example 79], 22 nM; under `COc1ccc(F)c(-c2ccc(C3CCc4ccc([C@@H](CC(=O)O)C5CC5)cc4O3)cc2C(OC)C(F)(F)F)c1` (mixture of isomers) [Example 127], 41.5 nM. In the case of `COc1ccc(F)c(-c2cnc(C3CCc4ccc([C@H](C5CC5)[C@H](C)C(=O)O)cc4O3)cn2)c1` (mixture of isomers) [Example 131], the EC50 is 1.7 nM. Same read-out and setting: under `COc1cc(-c2ccc(C3CCc4ccc([C@H](C5CC5)[C@H](C)C(=O)O)cc4O3)cc2C(OC)C(C)(C)C)ccn1` (mixture of isomers) [Example 129] stands 0.5 nM; under `COc1ccc(F)c(-c2ccc(C3CCc4ccc(C(C)C(C)C(=O)O)cc4O3)cc2)c1` (single isomer, unassigned) [Example 145], 77 nM. The same measure, in the same setting: under `COc1ccc(F)c(-c2ccc(C3CCc4ccc([C@@H](CC(=O)O)C5CC5)cc4O3)cc2C(OC)C(C)(C)C)c1` (single isomer, unassigned) [Example 125d] stands 256 nM. Consider `COc1ccc(F)c(-c2ccc(C3CCc4ccc(C(CC(=O)O)C5CC5)nc4O3)cc2)c1` (centres unmarked) [Example 136, 3-cyclopropyl-3-(2-(2′-fluoro-5′-methoxy-[1,1′-biphenyl]-4-yl)-3,4-dihydro-2H-pyrano[2,3-b]pyridin-7-yl)propanoic acid], for which the EC50 was 217 nM.

As for `COc1ccc(F)c(-c2ccc(C3CCc4ccc(C(C5CCC5)C(C)C(=O)O)cc4O3)cc2)c1` (single isomer, unassigned) [Example 154], the EC50 stood at 86 nM. The same measure, in the same setting: the value for `COc1ccc(F)c(-c2ccc(C3CCc4ccc(C(C)CC(=O)O)cc4O3)cc2)c1` (single isomer, unassigned) [Example 141] was 354 nM.

The assay is the same for the next values; noted with them: HEK cells stably expressing human GPR40, Table 3, read-out: Human IP1 activity.
Consider `COc1ccc(F)c(-c2ccc(C3COc4ccc([C@H](C5CC5)[C@H](C)C(=O)O)c(F)c4O3)cc2)c1` (some centres unmarked) [Example 184], for which the EC50 was 1.6 nM. For the compound `COc1ccc(F)c(-c2ccc(C3COc4ccc([C@H](C5CC5)[C@H](C)C(=O)O)cc4O3)cc2)c1` (some centres unmarked) [Example 170], the EC50 stood at 0.17 nM. The same measure, in the same setting: the value for `COc1ccc(F)c(-c2ccc([C@H]3COc4ccc([C@H](C5CC5)[C@H](C)C(=O)O)cc4O3)cc2Cl)c1` [Example 179] was 16.3 nM.

As for `COc1ccc(F)c(-c2ccc(C3COc4ccc([C@@H](CC(=O)O)C5CC5)cc4O3)cc2)c1` (single isomer, unassigned) [Example 168], the EC50 came out at 120 nM. The same measure, in the same setting: the value for `COc1ccc(F)c(-c2ccc([C@@H]3COc4ccc([C@H](C5CC5)[C@H](C)C(=O)O)cc4O3)cc2Cl)c1` [Example 178] was 10.6 nM; that for `COc1ccc(F)c(-c2ccc(C3COc4ccc([C@@H](CC(=O)O)C5CC5)cc4O3)cc2)c1` (mixture of isomers) [Example 166] was 18.8 nM; that for `COc1ccc(F)c(-c2ccc([C@@H]3COc4ccc([C@H](C5CC5)[C@H](C)C(=O)O)cc4O3)nc2C(F)(F)F)c1` [Example 164] was 8.2 nM. On the same count and under the same terms, under `CC#C[C@@H](CC(=O)O)c1ccc2c(c1)OCC(c1ccc(-c3cc(OC)ccc3F)cc1)O2` (single isomer, unassigned) [Example 177] stands 870 nM; under `COc1ccc(F)c(-c2ccc([C@@H]3COc4ccc([C@H](C5CC5)[C@H](C)C(=O)O)cc4O3)cc2C(OC)C(C)(C)C)c1` (some centres unmarked) [Example 163], 2.1 nM; under `C[C@H](C(=O)O)[C@H](c1ccc2c(c1)O[C@H](C1CN([C@H](C)c3cc(C(F)(F)F)ccc3C(F)(F)F)C1)CO2)C1CC1` [Example 189, (2S,3R)-3-((R)-3-(1-((R)-1-(2,5-bis(trifluoromethyl)phenyl)ethyl)azetidin-3-yl)-2,3-dihydrobenzo[b][1,4]dioxin-6-yl)-3-cyclopropyl-2-methylpropanoic acid], 13.3 nM.
